Data: patent publication US12655116B2, “Substituted isophthalic acid diamides” (Bayer Aktiengesellschaft, priority 2020, dated 2026)

What was measured:
PHBPU [1] = assay: Pre-emergence herbicidal action against PHBPU; assay type: in vivo, Pharbitis purpurea; settings: dosage 80 g/ha
How it was run: (§1)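 Sandy loam pots, seeds covered with soil, then surface-treated with WP or EC formulations at 600–800 l/ha water plus 0.2% wetting agent. Greenhouse, 3 weeks. Percent damage vs untreated controls.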

DIGSA [2] = assay: Pre-emergence herbicidal action against DIGSA; assay type: in vivo, Digitaria sanguinalis
How it was run: as §1

MATIN [3] = assay: Post-emergence herbicidal action against MATIN; assay type: in vivo, Matricaria inodora
How it was run: (§2)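 Herbicidal action is a visual percentage rating (0% = as untreated control, 100% = plants dead) made roughly 3 weeks after treatment. Plants were grown in sandy loam in the greenhouse and treated at the one-leaf stage, 2 to 3 weeks post-sowing. Treatment was a foliar spray of wettable-powder or emulsion-concentrate formulations at 600 to 800 l/ha water plus 0.2% wetting agent.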

LOLRI = assay: Pre-emergence herbicidal action against LOLRI; assay type: in vivo, Lolium rigidum; settings: 80 g/ha
How it was run: as §1

PHBPU [4] = assay: Post-emergence herbicidal action against PHBPU; assay type: in vivo, Pharbitis purpurea
How it was run: as §2

SETVI [5] = assay: Post-emergence herbicidal action against SETVI; assay type: in vivo, Setaria viridis
How it was run: as §2

ABUTH [6] = assay: Pre-emergence herbicidal action against ABUTH; assay type: in vivo, Abutilon theophrasti
How it was run: as §1

DIGSA [7] = assay: Post-emergence herbicidal action against DIGSA; assay type: in vivo, Digitaria sanguinalis
How it was run: as §2

ECHCG [8] = assay: Post-emergence herbicidal action against ECHCG; assay type: in vivo, Echinochloa crus-galli
How it was run: as §2

SETVI [9] = assay: Pre-emergence herbicidal action against SETVI; assay type: in vivo, Setaria viridis
How it was run: as §1

AMARE [10] = assay: Pre-emergence herbicidal action against AMARE; assay type: in vivo, Amaranthus retroflexus
How it was run: as §1

VIOTR [11] = assay: Pre-emergence herbicidal action against VIOTR; assay type: in vivo, Viola tricolor
How it was run: as §1

ECHCG [12] = assay: Pre-emergence herbicidal action against ECHCG; assay type: in vivo, Echinochloa crus-galli
How it was run: as §1

VERPE [13] = assay: Pre-emergence herbicidal action against VERPE; assay type: in vivo, Veronica persica; settings: dosage 80 g/ha
How it was run: as §1

ABUTH [14] = assay: Post-emergence herbicidal action against ABUTH; assay type: in vivo, Abutilon theophrasti; settings: visual assessment about 3 weeks after treatment vs untreated controls
How it was run: as §2

VIOTR [15] = assay: Post-emergence herbicidal action against VIOTR; assay type: in vivo, Viola tricolor
How it was run: as §2

ALOMY [16] = assay: Post-emergence herbicidal action against ALOMY; assay type: in vivo, Alopecurus myosuroides; settings: Alopecurus myosuroides, 504 h, dosage 20 g/ha, visual assessment about 3 weeks after treatment vs untreated controls
How it was run: as §2

AMARE [17] = assay: Post-emergence herbicidal action against AMARE; assay type: in vivo, Amaranthus retroflexus; settings: 20 g/ha, visual assessment about 3 weeks after treatment, 100% = plants have died, 0% = like control plants
How it was run: as §2

POLCO = assay: Pre-emergence herbicidal action against POLCO; assay type: in vivo, Polygonum convolvulus; settings: dosage 80 g/ha
How it was run: as §1

MATIN [18] = assay: Pre-emergence herbicidal action against MATIN; assay type: in vivo, Matricaria inodora
How it was run: as §1

ALOMY [19] = assay: Pre-emergence herbicidal action against ALOMY; assay type: in vivo, Alopecurus myosuroides; settings: 80 g/ha, pre-emergence, scored visually after 3 weeks vs untreated controls (100% = plants have died, 0% = like control plants)
How it was run: as §1

AVEFA = assay: Pre-emergence herbicidal action against AVEFA; assay type: in vivo, Avena fatua; settings: 80 g/ha, pre-emergence
How it was run: as §1

VERPE [20] = assay: Post-emergence herbicidal action against VERPE; assay type: in vivo, Veronica persica
How it was run: as §2

[21] = Tripleurospermum inodorum, 504 h, dosage 20 g/ha
[22] = Setaria viridis, 504 h, dosage 20 g/ha
[23] = 80 g/ha, scored visually after 3 weeks vs untreated controls (100% = plants have died, 0% = like control plants)

Cn1nnnc1NC(=O)c1ccc(C(F)(F)F)c(C(=O)NC2CC2)c1C1CC1 [Example 1-288]
pest or weed control at 80 g/ha (PHBPU [1]; Ipomoea purpurea, 504 h): 100% | pest or weed control at 20 g/ha (DIGSA [2]; Digitaria sanguinalis, 504 h, dosage 20 g/ha): 100% | pest or weed control at 80 g/ha (DIGSA [2]; Digitaria sanguinalis, 504 h, dosage 80 g/ha): 100% | pest or weed control at 5 g/ha (MATIN [3]; Tripleurospermum inodorum, 504 h, dosage 5 g/ha): 90% | pest or weed control at 20 g/ha (MATIN [3]; [21]): 100% | pest or weed control at 80 g/ha (LOLRI; Lolium rigidum, 504 h): 80% | pest or weed control at 20 g/ha (PHBPU [4]; Ipomoea purpurea, 504 h, dosage 20 g/ha): 80% | pest or weed control at 5 g/ha (SETVI [5]; Setaria viridis, 504 h, dosage 5 g/ha): 80% | pest or weed control at 20 g/ha (SETVI [5]; [22]): 100% | pest or weed control at 80 g/ha (ABUTH [6]; Abutilon theophrasti, 504 h, 80 g/ha, scored visually after 3 weeks vs untreated controls (100% = plants have died, 0% = like control plants)): 100% | pest or weed control at 20 g/ha (ABUTH [6]; Abutilon theophrasti, 504 h, dosage 20 g/ha, scored visually after 3 weeks vs untreated controls, 100% = plants have died, 0% = like control plants, read-out: Pre-emergence action against ABUTH (herbicidal activity in percent)): 100% | pest or weed control at 5 g/ha (DIGSA [7]; Digitaria sanguinalis, 504 h, 5 g/ha): 90% | pest or weed control at 20 g/ha (DIGSA [7]; Digitaria sanguinalis, 504 h, 20 g/ha): 100% | pest or weed control at 5 g/ha (ECHCG [8]; Echinochloa crus-galli, 504 h, dosage 5 g/ha): 80% | pest or weed control at 20 g/ha (ECHCG [8]; Echinochloa crus-galli, 504 h, dosage 20 g/ha): 80% | pest or weed control at 20 g/ha (SETVI [9]; [22]): 100% | pest or weed control at 80 g/ha (SETVI [9]; Setaria viridis, 504 h, dosage 80 g/ha): 100% | pest or weed control at 20 g/ha (AMARE [10]; Amaranthus retroflexus, 504 h, 20 g/ha, scored visually after 3 weeks vs untreated controls, 100% = plants have died, 0% = like control plants): 100% | pest or weed control at 80 g/ha (AMARE [10]; Amaranthus retroflexus, 504 h, 80 g/ha, scored visually after 3 weeks vs untreated controls, 100% = plants have died, 0% = like control plants): 100% | pest or weed control at 20 g/ha (VIOTR [11]; Viola tricolor, 504 h, dosage 20 g/ha): 100% | pest or weed control at 80 g/ha (VIOTR [11]; Viola tricolor, 504 h, dosage 80 g/ha): 100% | pest or weed control at 20 g/ha (ECHCG [12]; Echinochloa crus-galli, 504 h, 20 g/ha): 80% | pest or weed control at 80 g/ha (ECHCG [12]; Echinochloa crus-galli, 504 h, 80 g/ha): 100% | pest or weed control at 80 g/ha (VERPE [13]; Veronica persica, 504 h): 100% | pest or weed control at 5 g/ha (ABUTH [14]; Abutilon theophrasti, 504 h, dosage 5 g/ha): 80% | pest or weed control at 20 g/ha (ABUTH [14]; Abutilon theophrasti, 504 h, dosage 20 g/ha): 80% | pest or weed control at 5 g/ha (VIOTR [15]; Viola tricolor, 504 h, 5 g/ha): 90% | pest or weed control at 20 g/ha (VIOTR [15]; Viola tricolor, 504 h, 20 g/ha): 90% | pest or weed control at 20 g/ha (ALOMY [16]): 90% | pest or weed control at 20 g/ha (AMARE [17]; Amaranthus retroflexus, 504 h): 100% | pest or weed control at 80 g/ha (POLCO; Fallopia convolvulus, 504 h): 80% | pest or weed control at 20 g/ha (MATIN [18]; [21]): 100% | pest or weed control at 80 g/ha (MATIN [18]; Tripleurospermum inodorum, 504 h, dosage 80 g/ha): 100% | pest or weed control at 80 g/ha (ALOMY [19]; Alopecurus myosuroides, 504 h): 90% | pest or weed control at 80 g/ha (AVEFA; Avena fatua, 504 h): 90%

Cn1nnnc1NC(=O)c1ccc(C(F)(F)F)c(C(=O)NCC2CC2)c1C1CC1 [Example 1-289]
Pre-emergence action against PHBPU in % (PHBPU [1]): 80% | Pre-emergence action against DIGSA in % (DIGSA [2]; dosage 20 g/ha): 100% | Pre-emergence action against DIGSA in % (DIGSA [2]; dosage 80 g/ha): 100% | Post-emergence action against MATIN in % (MATIN [3]; dosage 20 g/ha): 80% | Pre-emergence action against LOLRI in % (LOLRI): 80% | Post-emergence action against PHBPU in % (PHBPU [4]; dosage 5 g/ha): 80% | Post-emergence action against PHBPU in % (PHBPU [4]; dosage 20 g/ha): 90% | Post-emergence action against SETVI in % (SETVI [5]; dosage 5 g/ha): 80% | Post-emergence action against SETVI in % (SETVI [5]; dosage 20 g/ha): 90% | Pre-emergence action against ABUTH (herbicidal activity) (ABUTH [6]; [23]): 100% | Pre-emergence action against ABUTH (herbicidal activity in percent) (ABUTH [6]; dosage 20 g/ha, scored visually after 3 weeks vs untreated controls, 100% = plants have died, 0% = like control plants): 100% | Post-emergence action against DIGSA in % (DIGSA [7]; 5 g/ha): 90% | Post-emergence action against DIGSA (DIGSA [7]; 20 g/ha): 90% | Post-emergence action against ECHCG in % (ECHCG [8]; dosage 20 g/ha): 80% | Pre-emergence action against SETVI in % (SETVI [9]; dosage 80 g/ha): 80% | Pre-emergence action against AMARE in % (AMARE [10]; 20 g/ha, scored visually after 3 weeks vs untreated controls, 100% = plants have died, 0% = like control plants): 90% | Pre-emergence action against AMARE in % (AMARE [10]; [23]): 100% | Pre-emergence action against VIOTR in % (VIOTR [11]; dosage 20 g/ha): 100% | Pre-emergence action against VIOTR in % (VIOTR [11]; dosage 80 g/ha): 100% | Pre-emergence action against ECHCG in % (ECHCG [12]; 20 g/ha): 80% | Pre-emergence action against ECHCG in % (ECHCG [12]; 80 g/ha): 100% | Pre-emergence action against VERPE in % (VERPE [13]): 100% | Post-emergence action against ABUTH in % (ABUTH [14]; dosage 5 g/ha): 80% | Post-emergence action against ABUTH in % (ABUTH [14]; dosage 20 g/ha): 80% | Post-emergence action against VIOTR in % (VIOTR [15]; 5 g/ha): 80% | Post-emergence action against VIOTR in % (VIOTR [15]; 20 g/ha): 90% | Post-emergence action at 20 g/ha against AMARE in % (AMARE [17]): 90% | Pre-emergence action against POLCO in % (POLCO): 80% | Pre-emergence action against MATIN in % (MATIN [18]; dosage 20 g/ha): 90% | Pre-emergence action against MATIN in % (MATIN [18]; dosage 80 g/ha): 100% | Pre-emergence action against ALOMY (herbicidal activity) (ALOMY [19]): 90% | Pre-emergence action against AVEFA in % (AVEFA): 80% | Post-emergence action against VERPE in % (VERPE [20]; 5 g/ha): 80% | Post-emergence action against VERPE in % (VERPE [20]; 20 g/ha): 90%
